Laboratory results taken from ChEMBL document CHEMBL1127976, “Synthesis and anti-HCMV activity of 9-[[(ethoxyhydroxyphosphinyl)methoxy]methoxy]guanine, an isostere of PMEG monoethyl ester” (Bioorg Med Chem Lett, 1994).
Values after ≈ are worked out from the molar mass of the structure shown.

Tests used:
[1] = Therapeutic index measured as ratio of EC50 for Davis/CC50 for HEL 299; conditions: human; read-out: Therapeutic index
[2] = Therapeutic index measured as ratio of […]; conditions: human; read-out: Therapeutic index
HEL 299 = assay: Compound was tested for its cytotoxicity against human embryonic lung fibroblast cells (HEL 299) by MTT dye reduction assay; type: functional
Human betaherpesvirus 5 [3] = assay: Concentration of compound required to inhibit 50% of HCMV strain Davis induced cytopathic effect; type: functional, organism-based
Human betaherpesvirus 5 [4] = assay: Concentration of compound required to inhibit 50% of HCMV strain AD-169 induced cytopathic effect; type: functional, organism-based

Row | Compound | selectivity ratio [1] | selectivity ratio [2] | CC50 (HEL 299) [µg/mL] | EC50 (Human betaherpesvirus 5 [3]) [µg/mL] | EC50 (Human betaherpesvirus 5 [4]) [µg/mL]
1 | CCOP(=O)(O)COCOn1cnc2c(O)nc(N)nc21 | > 700 | > 200 | > 400 | 0.6 (≈ 1.88 µM) | 1.8 (≈ 5.64 µM)
2 | Nc1nc2c(ncn2COC(CO)CO)c(=O)[nH]1 [GANCICLOVIR] | > 500 | > 200 | > 400 | 0.8 (≈ 3.13 µM) | 1.9 (≈ 7.44 µM)
